Calls of active or inactive are those of the source. No rule for the calls is given here.
target: 3C-like protease (3CLpro), SARS coronavirus; assay: SARS 3CLpro protease inhibitor potency, late-stage follow-up, biochemical, fluorescence, dose response, set 3 (AID 588771); details: purified 3CLpro, fluorogenic substrate cleavage

SMILES	IC50
CC(C)(C)NC(=O)[C@@H](c1cccnc1)N(C(=O)c1cnc[nH]1)c1ccc(C(C)(C)C)cc1	inactive
CC(C)(C)NC(=O)C(c1ccnnc1)N(C(=O)c1ccco1)c1ccc(C(C)(C)C)cc1 (stereo not given)	inactive
O=C(Nc1ccc(N(C(=O)Cn2nnc3ccccc32)C(C(=O)NCc2ccccc2)c2cccc(F)c2)cc1)C1CCC1 (stereo not given)	2.3 µM
CC(C)(C)NC(=O)C(c1cnccn1)N(C(=O)c1ccco1)c1ccc(C(C)(C)C)cc1 (stereo not given)	5.5 µM
CC(C)(C)NC(=O)C(c1cccnc1)N(C(=O)c1ccco1)c1ccc(Cc2ccccc2)cc1 (stereo not given)	inactive
CC(C)(C)NC(=O)[C@H](c1cccnc1)N(C(=O)c1cnc[nH]1)c1ccc(C(C)(C)C)cc1	4.5 µM
CC(C)(C)NC(=O)C(c1ccncc1)N(C(=O)c1ccco1)c1ccc(C(C)(C)C)cc1 (stereo not given)	inactive
Cn1cnc(C(=O)N(c2ccc(C(C)(C)C)cc2)C(C(=O)NC(C)(C)C)c2cccnc2)c1 (stereo not given)	inactive
O=C(Nc1ccc(N(C(=O)Cn2nnc3ccccc32)C(C(=O)NCc2ccccc2)c2cccc(F)c2)cc1)C1CC1 (stereo not given)	3 µM
CC(C)C(=O)Nc1ccc(N(C(=O)Cn2nnc3ccccc32)C(C(=O)NCc2ccccc2)c2cccc(F)c2)cc1 (stereo not given)	4.1 µM
